Laboratory results reported in PubChem BioAssay AID330 (DTP/NCI, 2004).
Where “and” joins values, the source holds several entries; their conditions need not be identical. Identical values can stand only once. Toxic doses and inconclusive results are not listed. The calls were made as follows: active = survival T/C of 150% or more; inactive = T/C below 125% in these data.

System: P388 leukemia ip, CD2F1 mice, survival T/C
Assay: NCI In Vivo Anticancer Drug Screen. Data for tumor model P388 Leukemia (intraperitoneal) in CD2F1 (CDF1) mice
Conditions: endpoint: median survival time, higher = longer survival
Method in brief: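 Mice carrying the transplanted tumor received test compound or vehicle. Survival was recorded in each group, and the value is the treated-group measurement divided by that of the vehicle-treated control group.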

[1] = dose: 50.0 mg/kg/injection, schedule: Q01DX009 (ip), vehicle: saline with Tween-80
[2] = dose: 100.0 mg/kg/injection, schedule: Q01DX009 (ip), vehicle: saline with Tween-80
[3] = dose: 50.0 mg/kg/injection, schedule: Q01DX005 (ip), vehicle: Klucel (hydroxypropylcellulose) (HPC)
[4] = dose: 100.0 mg/kg/injection, schedule: Q01DX005 (ip), vehicle: Klucel (hydroxypropylcellulose) (HPC)
[5] = dose: 200.0 mg/kg/injection, schedule: Q01DX005 (ip), vehicle: Klucel (hydroxypropylcellulose) (HPC)
[6] = dose: 200.0 mg/kg/injection, schedule: Q01DX009 (ip), vehicle: saline with Tween-80
[7] = dose: 50.0 mg/kg/injection, schedule: Q01DX005 (ip), vehicle: saline
[8] = dose: 100.0 mg/kg/injection, schedule: Q01DX005 (ip), vehicle: saline
[9] = dose: 200.0 mg/kg/injection, schedule: Q01DX005 (ip), vehicle: saline
[10] = dose: 100.0 mg/kg/injection, schedule: Q01DX001 (ip), vehicle: Klucel (hydroxypropylcellulose) (HPC)
[11] = dose: 200.0 mg/kg/injection, schedule: Q01DX001 (ip), vehicle: Klucel (hydroxypropylcellulose) (HPC)

Measured: T/C

CC(NC(=S)Nc1ccccc1)c1ccccc1 (stereo not given)
inactive: dose: 25.0 mg/kg/injection, schedule: Q04DX002 (ip), vehicle: Klucel (hydroxypropylcellulose) (HPC) 100 % of control | dose: 50.0 mg/kg/injection, schedule: Q04DX002 (ip), vehicle: Klucel (hydroxypropylcellulose) (HPC) 100 % of control | dose: 100.0 mg/kg/injection, schedule: Q04DX002 (ip), vehicle: Klucel (hydroxypropylcellulose) (HPC) 96 % of control

CCOC(C)(c1ccc(Cl)cc1)C1CCNCC1 (stereo not given)
inactive: [1] 101 % of control | [2] 119 % of control

O=Cc1ccc(N2OC3C(=O)N(c4ccccc4)C(=O)C3C2c2ccc([N+](=O)[O-])cc2)cc1 (stereo not given)
inactive: [3] 96 % of control | [4] 92 % of control | [5] 97 % of control

CC(=O)OCC12C(=O)CC(C)C3(CC(c4ccoc4)OC3=O)C1CCC(=O)C2(O)CCl (stereo not given)
inactive: dose: 0.75 mg/kg/injection, schedule: Q01DX005 (ip), vehicle: saline + alcohol 96 % of control | dose: 1.5 mg/kg/injection, schedule: Q01DX005 (ip), vehicle: saline + alcohol 106 % of control | dose: 3.0 mg/kg/injection, schedule: Q01DX005 (ip), vehicle: saline + alcohol 103 % of control | dose: 6.0 mg/kg/injection, schedule: Q01DX005 (ip), vehicle: saline + alcohol 108 % of control | dose: 12.0 mg/kg/injection, schedule: Q01DX005 (ip), vehicle: saline + alcohol 106 % of control | dose: 12.5 mg/kg/injection, schedule: Q01DX005 (ip), vehicle: saline + Tween-80 + alcohol 90 % of control | dose: 25.0 mg/kg/injection, schedule: Q01DX005 (ip), vehicle: saline + Tween-80 + alcohol 90 % of control | dose: 50.0 mg/kg/injection, schedule: Q01DX005 (ip), vehicle: saline + Tween-80 + alcohol 93 % of control | dose: 150.0 mg/kg/injection, schedule: Q01DX005 (ip), vehicle: saline + Tween-80 + alcohol 100 % of control

CCC(=O)Nc1cc(Cl)cc2[nH]c(C)nc12
inactive: [1] 110 % of control | [2] 99 % of control | [6] 102 % of control

NNC(=O)c1cccc(C(=O)NN)c1
inactive: [1] 94 % of control | [2] 97 % of control | [6] 92 % of control

COC(=O)C1CC(C(=O)OC)C2C(C(=O)OC)CC(C(=O)OC)C12 (stereo not given)
inactive: dose: 60.0 mg/kg/injection, schedule: Q01DX005 (ip), vehicle: saline with Tween-80 99 % of control | dose: 120.0 mg/kg/injection, schedule: Q01DX005 (ip), vehicle: saline with Tween-80 96 % of control | dose: 240.0 mg/kg/injection, schedule: Q01DX005 (ip), vehicle: saline with Tween-80 99 % of control

CN1C(=O)/C(=[N+](/[O-])c2ccccc2-c2ccccc2)c2ccccc21
inactive: dose: 100.0 mg/kg/injection, schedule: Q04DX002 (ip), vehicle: saline with Tween-80 99 % of control | dose: 200.0 mg/kg/injection, schedule: Q04DX002 (ip), vehicle: saline with Tween-80 100 % of control | dose: 400.0 mg/kg/injection, schedule: Q04DX002 (ip), vehicle: saline with Tween-80 97 % of control

C/C=C/C(/C=C/C)(C(=O)OCCN(CC)CC)C(/C=C/C)(/C=C/C)C(=O)OCCN(CC)CC
inactive: [7] 101 % of control | [8] 101 % of control | [9] 97 % of control

Cc1[nH]c2cc(Br)c(Br)cc2c1/C=N/NC(N)=S
inactive: dose: 50.0 mg/kg/injection, schedule: Q01DX001 (ip), vehicle: Klucel (hydroxypropylcellulose) (HPC) 100 % of control | [10] 96 % of control | [11] 92 % of control

CCC(O)C(O)(c1ccccc1)c1nc2ccccc2s1 (stereo not given)
inactive: [3] 102 % of control | [4] 102 % of control | [5] 99 % of control

O=C(O)CC1OCC=C2CN3CCC45c6ccccc6NC4C1C2CC35 (stereo not given)
inactive: dose: 0.93 mg/kg/injection, schedule: Q01DX005 (ip), vehicle: Klucel (hydroxypropylcellulose) (HPC) 100 % of control | dose: 1.87 mg/kg/injection, schedule: Q01DX005 (ip), vehicle: Klucel (hydroxypropylcellulose) (HPC) 98 % of control | dose: 7.5 mg/kg/injection, schedule: Q01DX005 (ip), vehicle: saline with Tween-80 100 % of control | dose: 15.0 mg/kg/injection, schedule: Q01DX005 (ip), vehicle: saline with Tween-80 100 % of control | dose: 30.0 mg/kg/injection, schedule: Q01DX005 (ip), vehicle: saline with Tween-80 100 % of control

CCOC(=O)C1(CC(C)C)CCOC1=O (stereo not given)
inactive: [3] 99 % of control | [4] 96 % of control | [5] 97 % of control

CSCCC(C(=O)O)N(CCC#N)CCC#N (stereo not given)
inactive: [7] 98 % of control | [8] 102 % of control | [9] 100 % of control

COc1cc2c(c(OC)c1OC)-c1cc3c(cc1CC(COC(C)=O)C(COC(C)=O)C2)OCO3 (stereo not given)
inactive: dose: 6.25 mg/kg/injection, schedule: Q04DX002 (ip), vehicle: saline with Tween-80 103 % of control | dose: 12.5 mg/kg/injection, schedule: Q04DX002 (ip), vehicle: saline with Tween-80 101 % of control | dose: 25.0 mg/kg/injection, schedule: Q04DX002 (ip), vehicle: saline with Tween-80 100 % of control

CC1(C(=O)OCc2ccccc2)NCCS1 (stereo not given)
inactive: [1] 100 % of control | [2] 96 % of control | [6] 109 % of control

CCOP(=O)(CC(=O)c1cc2ccccc2[nH]1)OCC
inactive: dose: 12.5 mg/kg/injection, schedule: Q01DX009 (ip), vehicle: saline 100 % of control | dose: 25.0 mg/kg/injection, schedule: Q01DX009 (ip), vehicle: saline 92 % of control | dose: 50.0 mg/kg/injection, schedule: Q01DX009 (ip), vehicle: saline 106 % of control and 95 % of control | dose: 200.0 mg/kg/injection, schedule: Q01DX009 (ip), vehicle: saline 97 % of control

COc1cc(Cc2nnc(N)nc2N)cc(OC)c1OC
inactive: [10] 100 % of control | [11] 114 % of control | dose: 400.0 mg/kg/injection, schedule: Q01DX001 (ip), vehicle: Klucel (hydroxypropylcellulose) (HPC) 96 % of control

CSC(=Nc1cccnc1)NC#N
inactive: dose: 50.0 mg/kg/injection, schedule: Q01DX009 (ip), vehicle: Klucel (hydroxypropylcellulose) (HPC) 96 % of control | dose: 100.0 mg/kg/injection, schedule: Q01DX009 (ip), vehicle: Klucel (hydroxypropylcellulose) (HPC) 93 % of control | dose: 200.0 mg/kg/injection, schedule: Q01DX009 (ip), vehicle: Klucel (hydroxypropylcellulose) (HPC) 92 % of control

CCOC(=O)CCC(NC(=O)c1ccc(NS(=O)(=O)c2ccc(C)cc2)cc1)C(=O)OCC (stereo not given)
inactive: dose: 3.13 mg/kg/injection, schedule: Q01DX009 (ip), vehicle: saline with Tween-80 93 % of control | dose: 6.25 mg/kg/injection, schedule: Q01DX009 (ip), vehicle: saline with Tween-80 93 % of control | dose: 12.5 mg/kg/injection, schedule: Q01DX009 (ip), vehicle: saline with Tween-80 86 % of control | [1] 110 % of control | [2] 100 % of control | [6] 99 % of control | dose: 400.0 mg/kg/injection, schedule: Q01DX009 (ip), vehicle: saline with Tween-80 99 % of control

CCCCN1NC1(C)c1ccccc1 (stereo not given)
inactive: dose: 50.0 mg/kg/injection, schedule: Q01DX005 (ip), vehicle: saline with Tween-80 108 % of control | dose: 100.0 mg/kg/injection, schedule: Q01DX005 (ip), vehicle: saline with Tween-80 104 % of control | dose: 200.0 mg/kg/injection, schedule: Q01DX005 (ip), vehicle: saline with Tween-80 112 % of control
